Source: patent US11541056B2, “3-hydroxy-N-(3-(7H-pyrrolo[2,3-d]pyrimidin-4-yl)phenyl)pyrrolidine-1-carboxamide derivatives” (NOVARTIS AG, priority 2018, dated 2023)
Read-outs that look alike come from different tables or passages of the source.

Experiments:
BTK(C481S)-GFP = target: T1, BTK(C481S)-GFP (Homo sapiens, UniProt Q06187+Q96SW2, C481S); assay: BTK(C481S)-GFP protein abundance flow cytometry assay in TMD8 cells; format: cell-based; details: for BTK (C481S) Amax %: % protein remaining at concentration of maximum degradation; for DC50: concentration at which 50% maximal degradation was observed
T1 construct: with a mutagenesis reaction on pENTR221-BTK (STOP-Leu); CHYSEL (cis-acting hydrolase element, 2A) remnant after GFP; mCherry is split off as a separate protein (C); expressed in transfected cells; host or cells: TMD8 cells, lentiviral transduction with pLenti6-BTK(C481S)-GFP-CHYSEL-mCherry
Method: (§1) Compounds of the invention were tested in the following cellular assays. The terms in Table 1 are defined as follows: DC50 refers to the concentration at which 50% maximal degradation was observed; deg Amax is the extent of degradation and the value refers to the % protein remaining at the concentration at which maximum degradation is seen; Prol GI50 refers to the proliferation data and defines the concentration at which 50% growth inhibition was observed compared to the vehicle treated control at the end of the incubation time. TMD8 cells are BTK dependent and OCI-LY3 cells are BTK independent.
BTK(C481S)-GFP Protein Abundance Flow Cytometry Assay in TMD8 Cells:
Degradation of BTK(C481S) was measured in TMD8 cells expressing BTK(C481S)-GFP and mCherry from a stably integrated second generation bicistronic BTK(C481S)-GFP-CHYSEL-mCherry construct. Reduction of the GFP signal measured by flow cytometry served as readout for BTK(C481S) degradation after degrader treatment.

TMD8 cells = assay: Resazurin cell viability assay in DLBCL cells (TMD8); format: cell-based; details: TMD8 cells (BTK dependent), 50% growth inhibition, read-out: TMD8 Prol GI50
Method: as §1
Cell Viability Assay in DLBCL (Diffuse Large B-Cell Lymphoma) Cells:
The effect of the BTK compounds on cell proliferation was measured by a Resazurin (Sigma, #R7017) based cell viability assay. TMD8 (BTK compound sensitive) and OCI-LY3 (BTK compound insensitive) cells were incubated for 72 h at 37° C. and 5% CO2 with the corresponding compound. Resazurin is a non-toxic, cell-permeable substrate that is virtually non-fluorescent. Upon entering living cells, Resazurin (Sigma, #R7017) is reduced to highly fluorescent Resorufin. The metabolic activity was assessed by measuring the fluorescence signal (ex. 530 nm; em. 600 nm).
TMD8 and OCI-Ly3 cells were seeded at day 0 in triplicates at a cell density of 1×10^4 cells per 150 μl/well in a 96-well plate (Costar #3904). Additional plates were prepared, in order to assess the basal metabolic activity of both cell lines at the beginning of the experiment. For these reference plates, Resazurin (Sigma, #R7017) was added to a final concentration of 13 μg/ml 3 h post seeding and was incubated for 2 h at 37° C. and 5% CO2. Following incubation, the fluorescent signal intensity of the 96-well plates was measured on a Mithras LB940 multimode plate reader at 530/600 nm (Berthold Technologies, Germany).
In parallel, 3 h post-seeding, test-plates were treated with compound at various concentrations, or with vehicle (DMSO) alone for 3 days. The compound addition to the plates was performed by using a HP D300 digital dispenser (TECAN, Switzerland). The compounds were tested in triplicate, 8-point serial dilution (1:4), with a start concentration of 10 μM for OCI-LY3 and 1 μM for the TMD8 cells, respectively. To assess the relative proliferation of the cells, Resazurin was added to each well directly to the medium to a final concentration of 13 μg/ml. The plates were incubated for 2 h at 37° C. and 5% CO2 to result in a 72 h endpoint. Following incubation, the fluorescent signal intensity of the 96-well plates were measured on a Mithras LB940 multimode plate reader at 530/600 nm (Berthold Technologies, Germany). The formation of Resorufin dye directly correlates with the number of metabolically active cells. For each triplicate treatment the mean and standard deviation were calculated and analyzed via curve fitting software to determine the respective compound concentration resulting in 50% growth inhibition (GI50) values. For each compound GI50 values were typically determined from at least 2 entirely independent experiments.
TMD8 cells were acquired through a license agreement with Tokyo Medical and Dental University, Japan. Cells are cultivated in MEM Alpha (BioConcept, #1-23F01-I, lot. LB04262P) supplemented with 10% FCS (HyClone, GE #SH30066.03, lot AB217603), 2 mM L-Glutamine (BioConcept, #5-10K50-H, lot. LA03467P), 1% Pen/Strep (BioConcept, #4-01F00-H, lot. LB04235P).

T1 sequence (Q06187 whole entry C481S): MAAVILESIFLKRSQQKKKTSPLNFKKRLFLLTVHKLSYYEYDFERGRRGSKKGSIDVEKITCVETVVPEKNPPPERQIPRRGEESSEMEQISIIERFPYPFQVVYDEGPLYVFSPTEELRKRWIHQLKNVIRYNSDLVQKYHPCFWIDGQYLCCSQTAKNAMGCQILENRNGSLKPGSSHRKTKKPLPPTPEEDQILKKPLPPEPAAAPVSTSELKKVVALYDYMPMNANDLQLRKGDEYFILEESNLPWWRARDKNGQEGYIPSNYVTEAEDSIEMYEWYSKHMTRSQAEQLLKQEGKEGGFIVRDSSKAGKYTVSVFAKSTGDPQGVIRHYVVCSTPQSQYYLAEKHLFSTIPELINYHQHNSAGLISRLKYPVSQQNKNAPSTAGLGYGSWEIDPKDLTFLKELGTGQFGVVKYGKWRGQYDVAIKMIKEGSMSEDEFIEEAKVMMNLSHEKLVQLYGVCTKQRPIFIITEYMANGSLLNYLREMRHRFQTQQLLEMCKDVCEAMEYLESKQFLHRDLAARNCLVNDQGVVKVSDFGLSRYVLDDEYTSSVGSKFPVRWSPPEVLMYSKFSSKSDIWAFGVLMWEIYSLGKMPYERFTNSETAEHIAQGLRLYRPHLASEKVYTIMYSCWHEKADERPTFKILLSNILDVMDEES
T1 sequence (Q96SW2 whole entry): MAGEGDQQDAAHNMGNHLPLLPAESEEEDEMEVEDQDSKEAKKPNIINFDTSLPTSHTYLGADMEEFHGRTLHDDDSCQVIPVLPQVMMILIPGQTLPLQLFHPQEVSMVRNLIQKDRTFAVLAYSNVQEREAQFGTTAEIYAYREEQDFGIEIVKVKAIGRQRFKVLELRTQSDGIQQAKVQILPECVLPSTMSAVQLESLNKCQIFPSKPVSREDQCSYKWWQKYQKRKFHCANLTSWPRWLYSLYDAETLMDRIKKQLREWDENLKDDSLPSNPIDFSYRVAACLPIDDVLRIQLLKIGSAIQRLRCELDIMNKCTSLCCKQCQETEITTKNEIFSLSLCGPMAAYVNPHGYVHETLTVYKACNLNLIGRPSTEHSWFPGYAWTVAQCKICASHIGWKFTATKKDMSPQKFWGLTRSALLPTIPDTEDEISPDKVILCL
T1 sequence (Q16531 whole entry partner): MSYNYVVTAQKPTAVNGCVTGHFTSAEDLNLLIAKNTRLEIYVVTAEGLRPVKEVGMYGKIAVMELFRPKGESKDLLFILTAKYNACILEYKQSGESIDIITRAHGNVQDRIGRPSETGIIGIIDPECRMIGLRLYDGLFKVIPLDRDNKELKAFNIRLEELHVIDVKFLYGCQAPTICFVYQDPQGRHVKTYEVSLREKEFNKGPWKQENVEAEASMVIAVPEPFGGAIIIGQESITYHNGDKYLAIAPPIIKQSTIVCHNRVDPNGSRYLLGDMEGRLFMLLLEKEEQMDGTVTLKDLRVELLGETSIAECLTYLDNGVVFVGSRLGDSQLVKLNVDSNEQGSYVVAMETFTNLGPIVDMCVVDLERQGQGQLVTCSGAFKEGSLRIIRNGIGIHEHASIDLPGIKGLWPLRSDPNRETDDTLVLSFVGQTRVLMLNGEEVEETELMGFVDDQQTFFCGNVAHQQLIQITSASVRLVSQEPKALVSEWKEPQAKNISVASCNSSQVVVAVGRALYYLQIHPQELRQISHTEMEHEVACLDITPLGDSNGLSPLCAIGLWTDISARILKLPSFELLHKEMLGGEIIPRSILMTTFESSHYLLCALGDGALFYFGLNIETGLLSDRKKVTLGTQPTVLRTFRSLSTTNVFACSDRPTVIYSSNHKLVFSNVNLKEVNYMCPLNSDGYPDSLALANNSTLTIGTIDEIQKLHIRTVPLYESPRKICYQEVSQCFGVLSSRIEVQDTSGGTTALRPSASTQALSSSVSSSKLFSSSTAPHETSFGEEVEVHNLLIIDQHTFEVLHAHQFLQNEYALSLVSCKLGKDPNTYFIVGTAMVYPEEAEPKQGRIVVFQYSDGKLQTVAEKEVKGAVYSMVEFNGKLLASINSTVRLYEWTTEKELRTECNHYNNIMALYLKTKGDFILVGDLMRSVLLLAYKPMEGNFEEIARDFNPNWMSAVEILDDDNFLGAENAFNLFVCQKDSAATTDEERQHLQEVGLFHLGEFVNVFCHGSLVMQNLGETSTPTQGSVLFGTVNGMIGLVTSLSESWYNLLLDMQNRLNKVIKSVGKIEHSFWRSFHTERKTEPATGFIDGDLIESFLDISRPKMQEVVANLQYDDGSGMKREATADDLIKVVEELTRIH

SMILES	BTK (C481S) Amax % (BTK(C481S)-GFP) [%]	DC50 (BTK(C481S)-GFP) [nM]	GI50 (TMD8 cells; 72 h) [nM]	GI50 (TMD8 cells; Homo sapiens, TMD8, 72 h) [nM]
COc1ccc(C(=O)N2CCC3(CCN(Cc4ccc(-c5cc6c(-c7cc(F)cc(NC(=O)N8C[C@@H](CC(C)C)[C@H](O)C8)c7C)ncnc6[nH]5)cc4)CC3)CC2)cc1N1CCC(=O)NC1=O (racemic) [Compound 5, trans-rac-N-(3-(6-(4-((9-(3-(2,4-Dioxotetrahydropyrimidin-1(2H)-yl)-4-methoxybenzoyl)-3,9-diazaspiro[5.5]undecan-3-yl)methyl)phenyl)-7H-pyrrolo[2,3-d]pyrimidin-4-yl)-5-fluoro-2-methylphenyl)-3-hydroxy-4-isobutylpyrrolidine-1-carboxamide]	2.0	1.3	0.73	–
COc1ccc(C(=O)N2CCC3(CCN(Cc4ccc(-c5cc6c(-c7cc(F)cc(NC(=O)N8C[C@@H](CC(C)C)[C@H](O)C8)c7C)ncnc6[nH]5)cc4)CC3)CC2)cc1N1CCC(=O)NC1=O [Compound 1, (3S,4R)—N-(3-(6-(4-((9-(3-(2,4-Dioxotetrahydropyrimidin-1(2H)-yl)-4-methoxybenzoyl)-3,9-diazaspiro[5.5]undecan-3-yl)methyl)phenyl)-7H-pyrrolo[2,3-d]pyrimidin-4-yl)-5-fluoro-2-methylphenyl)-3-hydroxy-4-isobutylpyrrolidine-1-carboxamide]	3.6	41	–	14
COc1ccc(C(=O)N2CCC(OCCN3CCN(Cc4ccc(-c5cc6c(-c7cc(F)cc(NC(=O)N8C[C@H](CC(C)C)[C@@H](O)C8)c7C)ncnc6[nH]5)cc4)CC3)CC2)cc1N1CCC(=O)NC1=O [Compound 2, (3R,4S)—N-(3-(6-(4-((4-(2-((1-(3-(2,4-Dioxotetrahydropyrimidin-1 (2H)-yl)-4-methoxybenzoyl)piperidin-4-yl)oxy)ethyl)piperazin-1-yl)methyl)phenyl)-7H-pyrrolo[2,3-d]pyrimidin-4-yl)-5-fluoro-2-methylphenyl)-3-hydroxy-4-isobutylpyrrolidine-1-carboxamide]	2.0	0.4	–	0.31
COc1ccc(C(=O)N2CCC3(CCN(Cc4ccc(-c5cc6c(-c7cc(F)cc(NC(=O)N8C[C@H](CC(C)C)[C@@H](O)C8)c7C)ncnc6[nH]5)cc4)CC3)CC2)cc1N1CCC(=O)NC1=O [Compound 6, (3R,4S)—N-(3-(6-(4-((9-(3-(2,4-Dioxotetrahydropyrimidin-1(2H)-yl)-4-methoxybenzoyl)-3,9-diazaspiro[5.5]undecan-3-yl)methyl)phenyl)-7H-pyrrolo[2,3-d]pyrimidin-4-yl)-5-fluoro-2-methylphenyl)-3-hydroxy-4-isobutylpyrrolidine-1-carboxamide]	2.1	0.7	–	0.45
COc1ccc(C(=O)N2CCC(OC3CCN(Cc4ccc(-c5cc6c(-c7cc(F)cc(NC(=O)N8C[C@H](CC(C)C)[C@@H](O)C8)c7C)ncnc6[nH]5)cc4)CC3)CC2)cc1N1CCC(=O)NC1=O [Compound 8, (3R,4S)—N-(3-(6-(4-((4-((1-(3-(2,4-Dioxotetrahydropyrimidin-1(2H)-yl)-4-methoxybenzoyl)piperidin-4-yl)oxy)piperidin-1-yl)methyl)phenyl)-7H-pyrrolo[2,3-d]pyrimidin-4-yl)-5-fluoro-2-methylphenyl)-3-hydroxy-4-isobutylpyrrolidine-1-carboxamide]	2.7	0.4	–	0.4
COc1ccc(C(=O)N2CCC(CN3CCC(Oc4ccc(-c5cc6c(-c7cc(F)cc(NC(=O)N8C[C@H](CC(C)C)[C@@H](O)C8)c7C)ncnc6[nH]5)cc4)CC3)CC2)cc1N1CCC(=O)NC1=O [Compound 11, (3R,4S)—N-(3-(6-(4-((1-((1-(3-(2,4-Dioxotetrahydropyrimidin-1 (2H)-yl)-4-methoxybenzoyl)piperidin-4-yl)methyl)piperidin-4-yl)oxy)phenyl)-7H-pyrrolo[2,3-d]pyrimidin-4-yl)-5-fluoro-2-methylphenyl)-3-hydroxy-4-isobutylpyrrolidine-1-carboxamide]	2.2	0.2	–	0.18
COc1ccc(C(=O)N2CCC(CN3CCN(Cc4ccc(-c5cc6c(-c7cc(F)cc(NC(=O)N8C[C@H](CC(C)C)[C@@H](O)C8)c7C)ncnc6[nH]5)cc4)CC3)CC2)cc1N1CCC(=O)NC1=O [Compound 12, (3R,4S)—N-(3-(6-(4-((4-((1-(3-(2,4-Dioxotetrahydropyrimidin-1(2H)-yl)-4-methoxybenzoyl)piperidin-4-yl)methyl)piperazin-1-yl)methyl)phenyl)-7H-pyrrolo[2,3-d]pyrimidin-4-yl)-5-fluoro-2-methylphenyl)-3-hydroxy-4-isobutylpyrrolidine-1-carboxamide]	3.0	0.3	–	0.3
COc1ccc(C(=O)N2CCC(OC3CCN(CCc4ccc(-c5cc6c(-c7cc(F)cc(NC(=O)N8C[C@H](CC(C)C)[C@@H](O)C8)c7C)ncnc6[nH]5)cc4)CC3)CC2)cc1N1CCC(=O)NC1=O [Compound 13, (3R,4S)—N-(3-(6-(4-(2-(4-((1-(3-(2,4-Dioxotetrahydropyrimidin-1(2H)-yl)-4-methoxybenzoyl)piperidin-4-yl)oxy)piperidin-1-yl)ethyl)phenyl)-7H-pyrrolo[2,3-d]pyrimidin-4-yl)-5-fluoro-2-methylphenyl)-3-hydroxy-4-isobutylpyrrolidine-1-carboxamide]	1.1	0.2	–	0.24
COc1ccc(C(=O)N2CCC3(CCN(CCc4ccc(-c5cc6c(-c7cc(F)cc(NC(=O)N8C[C@H](CC(C)C)[C@@H](O)C8)c7C)ncnc6[nH]5)cc4)CC3)CC2)cc1N1CCC(=O)NC1=O [Compound 15, (3R,4S)—N-(3-(6-(4-(2-(9-(3-(2,4-Dioxotetrahydropyrimidin-1(2H)-yl)-4-methoxybenzoyl)-3,9-diazaspiro[5.5]undecan-3-yl)ethyl)phenyl)-7H-pyrrolo[2,3-d]pyrimidin-4-yl)-5-fluoro-2-methylphenyl)-3-hydroxy-4-isobutylpyrrolidine-1-carboxamide]	3.0	0.9	–	0.22
COc1ccc(C(=O)N2CCC3(CCN(CCc4ccc(-c5cc6c(-c7cc(F)cc(NC(=O)N8C[C@@H](CC(C)C)[C@H](O)C8)c7C)ncnc6[nH]5)cc4)CC3)CC2)cc1N1CCC(=O)NC1=O [Compound 19, (3S,4R)—N-(3-(6-(4-(2-(9-(3-(2,4-dioxotetrahydropyrimidin-1(2H)-yl)-4-methoxybenzoyl)-3,9-diazaspiro[5.5]undecan-3-yl)ethyl)phenyl)-7H-pyrrolo[2,3-d]pyrimidin-4-yl)-5-fluoro-2-methylphenyl)-3-hydroxy-4-isobutylpyrrolidine-1-carboxamide]	2.9	16	–	4.87
